Laboratory results: paper PMC13252604, “First Generation Proteolysis Targeting Chimeras (PROTACs) for the Treatment of Progeria” (Advanced Science, 2026)

Key:
[1] = tested on: HGADFN167 Lmna^G608G/G608G fibroblasts; test: Transmission electron microscopy of mitochondria; format: cell-based, human; settings: HGADFN167, 5 µM, 20 days
Protocol: Supporting Figure S6. Basal respiration and electronic microscopy analysis of mitochondria in wild type and HGPS cells. (A) PROTAC 2 increases basal respiration (OCR, oxygen consumption rate) in human progeroid cells. Bar graphs show mean±sem of 2 independent experiments performed in duplicate. HGADFN167 LmnaG608G/G608G (progeroid) and HGADFN168 Lmna+/+ (wild type) fibroblasts, provided by the Progeria Research Foundation, were incubated with vehicle or 2 (5 µM) for 20 days. *, p<0.05 vs G608G cells, one-way ANOVA. […]
Mitochondria were evaluated for the integrity of the membrane, matrix and cristae, and were classified as mitochondria with normal morphology (black arrows) or damaged mitochondria (red arrows, with alterations in the membrane, presence of inclusions in the matrix and concentric cristae or “onion-like” mitochondria). […]
Cells were harvested by trypsin, centrifuged and washed with PBS. […] The mixture was then allowed to incubate for 30min at 37 °C in the dark and samples were finally analysed by FACScalibur (Becton Dickinson) flow cytometer […]
Cells were incubated for 1 h in 1% OsO4 at room temperature and then thoroughly washed with milliQ water. […] The samples were analysed and examined in the transmission electron microscope JEM 1010 at 80 […]

[2] = Stability in cell culture; format: in vitro ADME
Description: TABLE 1 Pharmacokinetic parameters of PROTAC 2. | column: Stability (hours) ^b / Cell culture

CC1(C)Oc2cc3oc(=O)ccc3cc2C[C@@H]1OC(=O)CCCCCNc1cccc2c1C(=O)N(C1CCC(=O)NC1=O)C2=O (some centres unmarked) [compound 2]
number of healthy mitochondria (electron microscopy) [1]: enhances
Stability (hours) Cell culture [2]: >24 h
